Source: ChEMBL document CHEMBL1201862, “PubChem BioAssay data set” (2004)
Several values for one entry are separate records, joined by “and”; a condition that tells them apart may be missing. Equal entries are not always repeated.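 Cultured in 96-well plates, cells were exposed to test compound for 48 hours across five concentrations. GI50 is the concentration that inhibits growth by half.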 Activity calls are given as the source filed them. Rule as the data show it: active = GI50 up to about 1.1 µM and inactive = higher.

Assays:
Assay in all cases: NCI tumour cell line growth inhibition, 48 h
[1] = test system: A498
[2] = test system: U-251
[3] = test system: UO-31
[4] = test system: MCF7
[5] = test system: DMS-273
[6] = test system: EKVX
[7] = test system: DLD-1
[8] = test system: UACC-257
[9] = test system: TK-10
[10] = test system: CAKI-1
[11] = test system: SW-620
[12] = test system: LXFL 529
[13] = test system: SNB-78
[14] = test system: RPMI-8226
[15] = test system: A549
[16] = test system: KM-20L2
[17] = test system: M19-MEL
[18] = test system: NCI-H226
[19] = test system: SNB-75
[20] = test system: OVCAR-4
[21] = test system: NCI-H23
[22] = test system: KM12
[23] = test system: SK-MEL-5
[24] = test system: MOLT-4
[25] = test system: HOP-92
[26] = test system: SR
[27] = test system: HCC 2998
[28] = test system: OVCAR-5
[29] = test system: COLO 205
[30] = test system: HL-60
[31] = test system: K562
[32] = test system: OVCAR-8
[33] = test system: OVCAR-3
[34] = test system: NCI-H522
[35] = test system: SF-539
[36] = test system: SK-OV-3
[37] = test system: CCRF-CEM
[38] = test system: DMS-114
[39] = test system: NCI-H460
[40] = test system: IGROV-1
[41] = test system: LOX IMVI
[42] = test system: RXF 393
[43] = test system: UACC-62
[44] = test system: SNB-19
[45] = test system: HT-29
[46] = test system: SK-MEL-28
[47] = test system: M14
[48] = test system: SF-268
[49] = test system: Hs-578T
[50] = test system: HCT-116
[51] = test system: MDA-MB-231
[52] = test system: HCT-15
[53] = test system: DU-145
[54] = test system: MDA-N
[55] = test system: 786-0
[56] = test system: HOP-62
[57] = test system: T47D
[58] = test system: SK-MEL-2
[59] = test system: MDA-MB-435
[60] = test system: Malme-3M
[61] = test system: ACHN
[62] = test system: SF-295
[63] = test system: NCI/ADR-RES
[64] = test system: BT-549
[65] = test system: PC-3
[66] = test system: SN12C

Measured: GI50

NC(=O)c1cn(C2OC(CO)C(O)C2O)c2ncnc(N)c12 (stereo not drawn)
active: [1] 0.0724 µM | [2] 0.07 µM | [3] 0.07 µM | [4] 0.07 µM | [5] 0.0213 µM | [6] 0.0453 µM

COc1ccc(-c2cc(-c3ccco3)c(C#N)c(=O)n2C2OC(COC(C)=O)C(OC(C)=O)C(OC(C)=O)C2OC(C)=O)cc1 (stereo not drawn)
inactive: [7] 50.9 µM | [8] > 100 µM | [9] 20 µM and 28.1 µM | [10] > 100 µM and 63.5 µM | [11] > 100 µM | [12] 11.4 µM | [13] > 100 µM | [14] 5.58 µM and 3.96 µM | [15] > 100 µM | [16] > 100 µM | [17] 76 µM | [18] 2.63 µM | [19] > 100 µM and 58.9 µM | [20] > 100 µM | [21] > 100 µM | [22] 69.7 µM | [23] > 100 µM | [24] > 100 µM | [25] 24.9 µM and 22.1 µM | [5] > 100 µM | [26] > 100 µM | [27] > 100 µM | [6] > 100 µM | [28] > 100 µM | [29] > 100 µM

CCSc1nc2cccc([N+](=O)[O-])c2n1CC
inactive: [30] > 100 µM | [7] > 100 µM | [8] > 100 µM | [31] > 100 µM | [2] > 100 µM | [32] > 100 µM | [9] > 100 µM | [10] > 100 µM | [11] > 100 µM | [33] > 100 µM | [12] > 100 µM | [13] > 100 µM | [34] > 100 µM | [35] > 100 µM | [14] > 100 µM | [15] > 100 µM | [18] > 100 µM | [36] > 100 µM | [19] > 100 µM | [37] > 100 µM | [38] > 100 µM | [20] > 100 µM | [21] > 100 µM | [39] > 100 µM | [22] > 100 µM | [40] > 100 µM | [41] > 100 µM | [42] > 100 µM | [23] > 100 µM | [24] > 100 µM | [43] > 100 µM | [44] > 100 µM | [45] > 100 µM | [25] > 100 µM | [5] > 100 µM | [27] > 100 µM | [46] > 100 µM | [6] > 100 µM | [29] > 100 µM | [47] > 100 µM

COC(=O)c1ccccc1CC1Cc2ccc3c(c2C1)CCC3 (stereo not drawn)
inactive: [1] > 100 µM | [30] 13.9 µM | [48] 41.3 µM | [8] 10.4 µM | [31] 29.6 µM | [2] 28.6 µM | [32] 34.5 µM | [49] 37 µM | [50] 23.3 µM | [9] 21.3 µM | [10] 45.5 µM | [11] 39.4 µM | [33] 31.3 µM | [51] 19.5 µM | [3] 37 µM | [34] 17.7 µM | [4] 14.3 µM | [35] 56.2 µM | [14] 18.1 µM | [15] 30.3 µM | [18] 35.1 µM | [36] 32.7 µM | [19] 25.8 µM | [37] 17.9 µM | [20] 24.2 µM | [21] 38.1 µM | [39] 30.1 µM | [53] 45.1 µM | [54] 34 µM | [55] 33.3 µM | [22] 30.1 µM | [56] 38.9 µM | [57] 22.9 µM | [40] 35.4 µM | [41] 16 µM | [42] 19.1 µM | [58] 15.6 µM | [23] 22.1 µM | [24] 21.6 µM | [43] 38.5 µM | [59] 22.9 µM | [44] 48.6 µM | [45] 20 µM | [25] 20.1 µM | [60] 19.4 µM | [61] 30.5 µM | [26] 5.38 µM | [27] 23.8 µM | [46] 46 µM | [6] 17.3 µM | [62] 35.2 µM | [28] 29.5 µM | [29] 17.4 µM | [63] 21 µM | [47] 33.9 µM | [64] 60.8 µM | [65] 29.2 µM | [66] 39.6 µM
20.4 µM: [52]

CCOP(=O)(OCC)C(Nc1cccc(F)c1)c1ccc(N(C)C)cc1 (stereo not drawn)
78.2 µM: [52]
inactive: [1] > 100 µM | [30] 45.7 µM | [48] > 100 µM | [8] 76.9 µM | [31] 49.1 µM | [2] > 100 µM | [32] > 100 µM | [49] > 100 µM | [50] 48.5 µM | [9] > 100 µM | [10] > 100 µM | [11] > 100 µM | [33] > 100 µM | [51] 78.2 µM | [3] > 100 µM | [34] 75.5 µM | [4] > 100 µM | [35] > 100 µM | [14] 67.6 µM | [15] 52.7 µM | [18] > 100 µM | [36] > 100 µM | [19] > 100 µM | [37] 90.4 µM | [20] > 100 µM | [21] > 100 µM | [39] 63 µM | [53] > 100 µM | [54] > 100 µM | [55] > 10 µM | [22] > 100 µM | [56] > 100 µM | [57] 34.8 µM | [40] > 100 µM | [41] 70.5 µM | [42] > 100 µM | [58] > 100 µM | [23] 71 µM | [24] 40.4 µM | [43] 50.4 µM | [59] > 100 µM | [44] > 100 µM | [45] 59.2 µM | [25] 18 µM | [60] > 100 µM | [61] > 100 µM | [26] > 100 µM | [27] 64 µM | [46] > 100 µM | [6] 99.1 µM | [62] 57 µM | [28] > 100 µM | [29] 97.1 µM | [63] 81.8 µM | [47] 74.3 µM | [64] > 100 µM | [65] 62.1 µM | [66] > 100 µM

CCCC(CC)c1cc(O)c(O)cc1C(CC)CCC (stereo not drawn)
inactive: [1] > 10 µM | [30] > 10 µM | [48] > 10 µM | [8] > 10 µM | [31] > 10 µM | [2] > 10 µM | [32] > 10 µM | [49] > 10 µM | [50] > 10 µM | [9] > 10 µM | [10] > 10 µM | [11] > 10 µM | [33] > 10 µM | [51] > 10 µM | [3] > 10 µM | [34] > 10 µM | [4] > 10 µM | [35] > 10 µM | [14] > 10 µM | [15] > 10 µM | [18] > 10 µM | [36] > 10 µM | [19] > 10 µM | [37] > 10 µM | [20] > 10 µM | [21] > 10 µM | [39] > 10 µM | [53] > 10 µM | [54] > 10 µM | [55] > 10 µM | [22] > 10 µM | [56] > 10 µM | [57] > 10 µM | [40] > 10 µM | [41] > 10 µM | [42] > 10 µM | [58] > 10 µM | [23] > 10 µM | [24] > 10 µM | [43] > 10 µM | [59] > 10 µM | [44] > 10 µM | [45] > 10 µM | [25] > 10 µM | [60] > 10 µM | [61] > 10 µM | [26] > 10 µM | [27] > 10 µM | [46] > 10 µM | [6] > 10 µM | [62] > 10 µM | [28] > 10 µM | [29] > 10 µM | [63] > 10 µM | [47] > 10 µM | [64] > 10 µM | [65] > 10 µM | [66] > 10 µM
> 10 µM: [52]
